Data published in article PMC6009964, “Designing, synthesis and bioactivities of 4-[3-(4-hydroxyphenyl)-5-aryl-4,5-dihydro-pyrazol-1-yl]benzenesulfonamides” (Journal of Enzyme Inhibition and Medicinal Chemistry, 2016).
Like-named read-outs stand apart in the source and are kept apart here.

Experiments:
[1] = system: HSC-4 human oral squamous cell carcinoma cell line (tongue); test: Cytotoxicity assay (MTT), HSC-4; conditions: for CC50: Homo sapiens, HSC-4, 48 h, read-out: CC50 HSC-4; for SI (HSC-4): average CC50 of nonmalignant cells / CC50 towards HSC-4
[2] = molecular target: T1, hCA IX (Homo sapiens, UniProt Q16790); test: Stopped-flow CO2 hydration carbonic anhydrase assay, hCA IX; assay type: biochemical; conditions: for Ki: stopped-flow CO2 hydration, 15 min preincubation, pH 7.5; for times more potent than compound 1 towards hCA IX: ratio of Ki versus compound 1
T1 construct: made in house

[3] = Cytotoxicity assay (MTT), normal oral cells (mean); conditions: human, normal oral cells HGF, HPLF, HPC (mean of the three)
[4] = Cytotoxicity assay (MTT), HPC; conditions: human, normal pulp cells (HPC)
[5] = system: HSC-3 human oral squamous cell carcinoma cell line (tongue); test: Cytotoxicity assay (MTT), HSC-3; conditions: for CC50: Homo sapiens, HSC-3, 48 h, read-out: CC50 HSC-3; for SI (HSC-3): average CC50 of nonmalignant cells / CC50 towards HSC-3
[6] = Cytotoxicity assay (MTT), HPLF; conditions: human, normal periodontal ligament fibroblasts (HPLF)
[7] = molecular target: T2, hCA XII (Homo sapiens, UniProt O43570); test: Stopped-flow CO2 hydration carbonic anhydrase assay, hCA XII; assay type: biochemical; conditions: for Ki: stopped-flow CO2 hydration, 15 min preincubation, pH 7.5; for hCA XII/hCA IX (selectivity ratio of Ki): times more selective towards hCA XII than hCA IX; for times more potent than compound 1 towards hCA XII: ratio of Ki versus compound 1
T2 construct: made in house
T2 sequence (O43570 25-354): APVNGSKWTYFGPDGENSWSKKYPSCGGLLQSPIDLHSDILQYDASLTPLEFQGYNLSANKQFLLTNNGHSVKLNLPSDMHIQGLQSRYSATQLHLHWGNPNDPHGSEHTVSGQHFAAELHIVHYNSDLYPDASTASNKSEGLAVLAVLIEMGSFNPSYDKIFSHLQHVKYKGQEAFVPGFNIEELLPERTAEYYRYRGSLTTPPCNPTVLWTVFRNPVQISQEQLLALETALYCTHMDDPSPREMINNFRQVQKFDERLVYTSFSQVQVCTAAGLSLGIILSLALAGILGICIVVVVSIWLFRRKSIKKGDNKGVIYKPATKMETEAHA

[8] = Cytotoxicity assay (MTT), HGF; conditions: human, normal gingival fibroblasts (HGF)
[9] = system: HSC-2 human oral squamous cell carcinoma cell line (tongue); test: Cytotoxicity assay (MTT), HSC-2; conditions: for CC50: Homo sapiens, HSC-2, 48 h, read-out: CC50 HSC-2; for SI (HSC-2): average CC50 of nonmalignant cells / CC50 towards HSC-2
[10] = system: Human oral squamous cell carcinoma cell lines (Ca9–22, HSC-2, HSC-3, HSC-4); test: Cytotoxicity assay (MTT), all four OSCC lines (mean, selectivity); conditions: for CC50: Homo sapiens; for TS (D/B): mean CC50 against normal cells / mean CC50 against cancer cells; for Mean SI: mean SI over four OSCC cell lines
[11] = system: Ca9–22 human oral squamous cell carcinoma cell line (gingiva); test: Cytotoxicity assay (MTT), Ca9-22; conditions: for TS (C/A): CC50 HGF / CC50 Ca9–22 (same tissue origin, gingiva); for CC50: Homo sapiens, Ca9-22, 48 h, read-out: CC50 Ca9–22 (A); for SI (Ca9–22): average CC50 of nonmalignant cells / CC50 towards Ca9–22
[12] = read-out: CC50 Mean (B), human oral squamous cell carcinoma cell lines

| Compound | CC50 [1] [µM] | SI (HSC-4) [1] | Ki [2] [µM] | CC50 at 48 h [3] [µM] | CC50 at 48 h [4] [µM] | CC50 [5] [µM] | SI (HSC-3) [5] | CC50 at 48 h [6] [µM] | Ki [7] [µM] | hCA XII/hCA IX (selectivity ratio of Ki) [7] | CC50 at 48 h [8] [µM] | CC50 [9] [µM] | SI (HSC-2) [9] | CC50 [10, 12] [µM] | TS (D/B) [10] | Mean SI [10] | TS (C/A) [11] | CC50 [11] [µM] | SI (Ca9–22) [11] | times more potent than compound 1 towards hCA IX [2] | other results |
| --- | --- | --- | --- | --- | --- | --- | --- | --- | --- | --- | --- | --- | --- | --- | --- | --- | --- | --- | --- | --- | --- |
| NS(=O)(=O)c1ccc(N2N=C(c3ccc(O)cc3)CC2c2ccccc2)cc1 (stereo not shown) [Compound 1, 4-[3-(4-Hydroxyphenyl)-5-phenyl-4,5-dihydro-pyrazol-1-yl]benzenesulfonamide] | 83.7 | 1.4 | 0.923 | 118 | 161 | 81 | 1.5 | 59.7 | 0.0689 | 13.4 | 133 | 94.7 | 1.2 | 85.3 | 1.4 | 1.4 | 1.6 | 82 | 1.4 | – | – |
| O=c1[nH]cc(F)c(=O)[nH]1 [Compound 5-FU, 5-Fluorouracil, reference compound] | 13 | >76.9 | – | > 1000 | > 1000 | 16 | >62.5 | > 1000 | – | – | > 1000 | 13 | >76.9 | 17.8 | >56.2 | >62.7 | >34.5 | 29 | >34.5 | – | CC50 ([10]; read-out: CC50 range towards cancer cell lines): 13 to 29 µM |
| NS(=O)(=O)c1ccc(N2N=C(c3ccc(O)cc3)CC2c2ccc(Cl)cc2Cl)cc1 (stereo not shown) [Compound 5, 4-[5-(2,4-Dichlorophenyl)-3-(4-hydroxyphenyl)-4,5-dihydro-pyrazol-1-yl]benzenesulfonamide] | 54 | 1.4 | 0.0857 | 76.2 | 131 | 76 | 1.0 | 34.7 | 0.0092 | 9.3 | 63 | 82.3 | 0.9 | 64.2 | 1.2 | 1.3 | 1.4 | 44.3 | 1.7 | 10.8 | times more potent than compound 1 towards hCA XII [7]: 7.5 |
| NS(=O)(=O)c1ccc(N2N=C(c3ccc(O)cc3)CC2c2ccc(Cl)cc2)cc1 (stereo not shown) [Compound 4, 4-[5-(4-Chlorophenyl)-3-(4-hydroxyphenyl)-4,5-dihydro-pyrazol-1-yl]benzenesulfonamide] | 61 | 1.4 | 0.0977 | 87.6 | 144 | 57 | 1.5 | 29.3 | 0.0388 | 2.5 | 89 | 81.7 | 1.1 | 59.8 | 1.5 | 1.6 | 2.2 | 39.7 | 2.2 | – | – |
| NS(=O)(=O)c1ccc(N2N=C(c3ccc(O)cc3)CC2c2ccc([N+](=O)[O-])cc2)cc1 (stereo not shown) [Compound 8, 4-[3-(4-Hydroxyphenyl)-5-(4-nitrophenyl)-4,5-dihydro-pyrazol-1-yl]benzenesulfonamide] | 63.7 | 1.0 | 0.0637 | 66.2 | 127 | 63.3 | 1.0 | 30 | 0.0075 | 8.5 | 42 | 76 | 0.9 | 60.6 | 1.1 | 1.2 | 1.1 | 39.3 | 1.7 | 14.5 | times more potent than compound 1 towards hCA XII [7]: 9.2 |
| COc1ccc(C2CC(c3ccc(O)cc3)=NN2c2ccc(S(N)(=O)=O)cc2)cc1 (stereo not shown) [Compound 3, 4-[3-(4-Hydroxyphenyl)-5-(4-methoxyphenyl)-4,5-dihydro-pyrazol-1-yl]benzenesulfonamide] | 88.3 | 1.2 | 0.0931 | 105 | 167 | 71 | 1.5 | 39.3 | 0.0336 | 2.8 | 108 | 95.3 | 1.1 | 77 | 1.4 | 1.4 | 2.0 | 53.3 | 2.0 | – | times increased inhibition potential versus compound 2 towards hCA IX ([2]; ratio of Ki versus compound 2): 1.1; times increased inhibition potential versus compound 2 towards hCA XII ([7]; ratio of Ki versus compound 2): 2.8 |
| NS(=O)(=O)c1ccc(N2N=C(c3ccc(O)cc3)CC2c2ccc(F)cc2)cc1 (stereo not shown) [Compound 6, 4-[5-(4-Fluorophenyl)-3-(4-hydroxyphenyl)-4,5-dihydro-pyrazol-1-yl]benzenesulfonamide] | 62.3 | 1.4 | 0.0841 | 84.2 | 155 | 78 | 1.1 | 33 | 0.0086 | 9.8 | 64.7 | 84.7 | 1.0 | 71.7 | 1.2 | 1.2 | 1.0 | 61.7 | 1.4 | – | – |
| NS(=O)(=O)c1ccc(N2N=C(c3ccc(O)cc3)CC2c2ccc(Br)cc2)cc1 (stereo not shown) [Compound 7, 4-[5-(4-Bromophenyl)-3-(4-hydroxyphenyl)-4,5-dihydro-pyrazol-1-yl]benzenesulfonamide] | 61.7 | 1.3 | 0.0662 | 78.6 | 149 | 70.3 | 1.1 | 34.3 | 0.0076 | 8.7 | 52 | 85 | 0.9 | 68.2 | 1.2 | 1.2 | 0.9 | 55.7 | 1.4 | – | – |
| NS(=O)(=O)c1ccc(N2N=C(c3ccc(O)cc3)CC2c2cccs2)cc1 (stereo not shown) [Compound 9, 4-[3-(4-Hydroxyphenyl)-5-(thiophen-2-yl)-4,5-dihydro-pyrazol-1-yl]benzenesulfonamide] | 93.7 | 1.3 | – | 122 | 173 | 87.3 | 1.4 | 26.7 | – | 8.6 | 166 | 67 | 1.8 | 86.8 | 1.4 | 1.4 | 1.7 | 99.3 | 1.2 | 17.3 | times more potent than compound 1 towards hCA XII [7]: 11.1 |
| Cc1ccc(C2CC(c3ccc(O)cc3)=NN2c2ccc(S(N)(=O)=O)cc2)cc1 (stereo not shown) [Compound 2, 4-[3-(4-Hydroxyphenyl)-5-p-tolyl-4,5-dihydro-pyrazol-1-yl]benzenesulfonamide] | 70.3 | 1.4 | 0.1 | 97.2 | 150 | 67.3 | 1.4 | 42.3 | 0.095 | – | 99.3 | 95.3 | 1.0 | 72.5 | 1.3 | 1.4 | 1.7 | 57 | 1.7 | – | – |
